Test results reported in patent US7541367B2, “3-benzoimidazolyl-pyrazolopyridines useful in treating kinase disorders” (Janssen Pharmaceutica, N.V., priority 2005, dated 2009).

Key:
Aurora-A = biological target: T1, Aurora-A (Mus musculus, UniProt P97477); assay: Aurora-A kinase screening assay (33P-ATP FlashPlate); type: biochemical; details: 10 μM ATP, 1 hr at 30° C;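 further: His-tagged mouse Aurora-A phosphorylating a biotinylated peptide captured on streptavidin plates, read as 33P uptake by scintillation counting, 1% DMSO, inhibition scaled between per-plate maximum and minimum signals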
T1 construct: polyhistidine (N)
T1 sequence (P97477 1-395): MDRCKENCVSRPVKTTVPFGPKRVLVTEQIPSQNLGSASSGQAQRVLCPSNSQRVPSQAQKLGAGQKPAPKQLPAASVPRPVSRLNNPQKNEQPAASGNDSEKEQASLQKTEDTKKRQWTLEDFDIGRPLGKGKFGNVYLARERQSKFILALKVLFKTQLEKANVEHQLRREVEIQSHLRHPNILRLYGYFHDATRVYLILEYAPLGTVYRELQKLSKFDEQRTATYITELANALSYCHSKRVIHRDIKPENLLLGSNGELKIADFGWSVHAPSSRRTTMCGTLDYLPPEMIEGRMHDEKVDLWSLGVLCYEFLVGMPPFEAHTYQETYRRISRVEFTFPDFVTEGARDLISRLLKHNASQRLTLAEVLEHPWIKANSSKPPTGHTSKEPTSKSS

[1] = tested on: Human melanoma A375 cells; assay: In Vivo Models - Inhibition of Tumor Growth (A375 xenograft); details: female athymic mice, 25 mg/kg i.p. daily
Experimental: The ability of test compounds to inhibit unregulated growth of human tumor cells in vivo was evaluated by implanting human tumor cells into the hindflank of athymic mice, administering a test compound and then quantifying any change in tumor size.
Certain compounds at particular doses produced adverse effects in this model. One skilled in the art would be able to establish the effective amount of compound required to achieve an effective therapeutic window.
Human melanoma A375 cells were implanted subcutaneously into the hindflank of female athymic mice (Charles River) and allowed to grow for 6-10 days. After a measurable tumor was established (as determined by baseline caliper measurement), the animal was administered an intraperitoneal (i.p.) dose of the test compound daily at 25 mg/kg for the length of the study. Tumor size was measured at certain intervals as shown in Table 5 and the degree of inhibition for a test compound was determined by comparing the reduction in tumor volume for drug-treated animals to that of untreated and vehicle-treated animals. The vehicle used was 20% hydroxypropyl β-cyclodextran.

[2] = tested on: HeLa cervical adenocarcinoma; assay: Cell Proliferation Inhibition Assay (14C-thymidine incorporation), HeLa; type: cell-based; details: Homo sapiens, HeLa, HeLa cells;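 further: test compound in DMSO added to cells seeded in scintillating 96-well plates, DMSO-only wells as control, uptake of methyl 14C-thymidine into new DNA counted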

Compound | IC50 (Aurora-A) | Tumor volume ([1]; Day 1) | Tumor volume ([1]; Day 4) | IC50 [2] | Tumor volume ([1]; Day 8) | Tumor volume ([1]; Day 11) | Tumor volume ([1]; Day 14)
CNCc1cncc(-c2cnc3[nH]nc(-c4nc5cc(OC(F)(F)F)ccc5[nH]4)c3c2)c1 [Cpd 96, methyl-{5-[3-(5-trifluoromethoxy-1H-benzoimidazol-2-yl)-1H-pyrazolo[3,4-b]pyridin-5-yl]-pyridin-3-ylmethyl}-amine] | ~1000 nM | 95.4 mm^3 | 68.3 mm^3 | – | – | – | –
CCNCc1cncc(-c2cnc3[nH]nc(-c4nc5cc(OC)ccc5[nH]4)c3c2)c1 [Cpd 101, ethyl-{5-[3-(5-methoxy-1H-benzoimidazol-2-yl)-1H-pyrazolo[3,4-b]pyridin-5-yl]-pyridin-3-ylmethyl}-amine] | 356 nM | 95.4 mm^3 | 128 mm^3 | 34.2 nM | 354.1 mm^3 | 632.3 mm^3 | 988.7 mm^3
